US8674118B2, “Compounds and methods for the treatment or prevention of flavivirus infections” (priority 2005, dated 2014)
Structures can show the parent of a compound that is named as a salt.

The compounds below were run on HCV RNA replication (replicon cell lines Huh-7, 5.2 and ET) (assay: Cell-Based Luciferase Reporter HCV RNA Replication Assay). Conditions: Hepatitis C virus, Huh-7, 96 h.

With `CCON=C1CCC(N(c2cc(C3=CCCCC3)sc2C(=O)O)C(=O)[C@H]2CC[C@H](C)CC2)CC1` (relative stereo) [Compound 54, 5-cyclohex-1-enyl-3-[(4-ethoxyimino-cyclohexyl)-(trans-4-methyl-cyclohexanecarbonyl)-amino]-thiophene-2-carboxylic acid] the IC50 was under 5 µM.

Same assay, conditions: Hepatitis C virus, Huh-7, 96 h, Huh-7, 5.2 or ET replicon cells, luciferase counts after 4 days incubation; read-out: IC50

`CC1CCC(C(=O)N(c2cc(C3CCC(C)(C)CC3)sc2C(=O)O)C2CCC(n3cncn3)CC2)CC1` (stereo not drawn) [Compound 118, 5-(4,4-dimethyl-cyclohexyl)-3-[(trans-4-methyl-cyclohexanecarbonyl)-(trans-4-[1,2,4]triazol-1-cyclohexyl)-amino]-thiophene-2-carboxylic acid; hydrochloride] and `CC1(C)CCC(c2cc(N(C(=O)[C@H]3CC[C@H](C)CC3)[C@H]3CC[C@H](F)CC3)c(C(=O)O)s2)CC1` [Compound 83, 5-(4,4-dimethyl-cyclohexyl)-3-[(trans-4-fluoro-cyclohexyl)-(trans-4-methyl-cyclohexanecarbonyl)-amino]-thiophene-2-carboxylic acid] cannot be ordered by IC50: under 5 µM for the first, under 5 µM for the second.

`CO[C@H]1CC[C@H](N(c2cc(C3=C(F)CCCC3F)sc2C(=O)O)C(=O)[C@H]2CC[C@H](C)CC2)CC1` (relative stereo) [Compound 119, 5-(2,6-difluoro-cyclohex-1-enyl)-3-[(trans-4-methoxy-cyclohexyl)-(trans-4-methyl-cyclohexanecarbonyl)-amino]-thiophene-2-carboxylic acid] and `CO[C@H]1CC[C@H](N(c2cc(C3=C(F)C(F)CCC3)sc2C(=O)O)C(=O)[C@H]2CC[C@H](C)CC2)CC1` (relative stereo) [Compound 120, 5-(2,3-difluoro-cyclohex-1-enyl)-3-[(trans-4-methoxy-cyclohexyl)-(trans-4-methyl-cyclohexanecarbonyl)-amino]-thiophene-2-carboxylic acid] cannot be ordered by IC50: under 5 µM for the first, under 5 µM for the second.

First: CNC(=O)C1CCC(N(C(=O)C2CCC(C)CC2)c2cc(C3=CCCCC3)sc2C(=O)O)CC1C(=O)O (stereo not drawn) [Compound 68, 3-[(3-trans-carboxy-4-trans-methylcarbamoyl-cyclohexyl)-(4-trans-methyl-cyclohexanecarbonyl)-amino]-5-cyclohex-1-enyl-thiophene-2-carboxylic acid]
Second: C[C@H]1CC[C@H](C(=O)N(c2cc(C3=CCCCC3)sc2C(=O)O)C2CC2)CC1 [Compound 51, 5-cyclohex-1-enyl-3-[cyclopropyl-(trans-4-methyl-cyclohexanecarbonyl)-amino]-thiophene-2-carboxylic acid]
The IC50 of the first is lower: under 5 µM for the first, 5 to 25 µM for the second. The first is the more potent here.

First: CC1CCC(C(=O)N(c2cc(C3CCC(=O)CC3)sc2C(=O)O)C2CCC(O)CC2)CC1 (stereo not drawn) [Compound 86, 3-[(4-trans-hydroxy-cyclohexyl)-(4-trans-methyl-cyclohexanecarbonyl)-amino]-5-(4-oxo-cyclohexyl)-thiophene-2-carboxylic acid]
Second: C[C@H]1CC[C@H](C(=O)N(c2cc(C3=CCCC3)sc2C(=O)O)[C@H]2CC[C@H](O)CC2)CC1 [Compound 3, 5-Cyclopent-1-enyl-3-[(trans-4-hydroxy-cyclohexyl)-(trans-4-methyl-cyclohexanecarbonyl)-amino]-thiophene-2-carboxylic acid]
The IC50 of the first is higher: 5 to 25 µM for the first, under 5 µM for the second. The second is the more potent here.

`CN1C(=O)N(C)C2(CCC(N(c3cc(C4CCC(C)(C)CC4)sc3C(=O)O)C(=O)[C@H]3CC[C@H](C)CC3)CC2)C1=O` (relative stereo) [Compound 79, 5-(4,4-dimethyl-cyclohexyl)-3-[(1,3-dimethyl-2,4-dioxo-1,3-diaza-spiro[4.5]dec-8-yl)-(trans-4-methyl-cyclohexanecarbonyl)-amino]-thiophene-2-carboxylic acid] and `CC1(C)CCC(c2cc(N(C(=O)[C@H]3CC[C@H](C)CC3)C3COCOC3)c(C(=O)O)s2)CC1` [Compound 97, 5-(4,4-Dimethyl-cyclohexyl)-3-[[1,3]dioxan-5-yl-(trans-4-methyl-cyclohexanecarbonyl)-amino]-thiophene-2-carboxylic acid] cannot be ordered by IC50: under 5 µM for the first, under 5 µM for the second.

First: CN(c1cc(C2=CCCCC2)sc1C(=O)O)C(=O)[C@H]1CC[C@H](C)CC1 [Compound 37, 5-cyclohex-1-enyl-3-[methyl-(trans-4-methyl-cyclohexanecarbonyl)-amino]-thiophene-2-carboxylic acid]
Second: C[C@H]1CC[C@H](C(=O)N(c2cc(C3=CCCCC3)sc2C(=O)O)[C@H]2CC[C@H](C)CC2)CC1 [Compound 52, 5-cyclohex-1-enyl-3-[(trans-4-methyl-cyclohexanecarbonyl)-(trans-4-methyl-cyclohexyl)-amino]-thiophene-2-carboxylic acid]
The IC50 of the first is higher: 5 to 25 µM for the first, under 5 µM for the second.

`CC1CCC(C(=O)N(c2cc(C3=CCCCC3)sc2C(=O)O)C2CC=CCC2)CC1` (stereo not drawn) [Compound 115, RS-5-cyclohex-1-enyl-3-[cyclohex-3-enyl-(4-trans-methyl-cyclohexanecarbonyl)-amino]-thiophene-2-carboxylic acid] and `C[C@H]1CC[C@H](C(=O)N(c2cc(C3=CCCCC3)sc2C(=O)O)[C@H]2CC[C@H](O)CC2)CC1` [Compound 1, 5-Cyclohex-1-enyl-3-[(trans-4-hydroxy-cyclohexyl)-(trans-4-methyl-cyclohexanecarbonyl)-amino]-thiophene-2-carboxylic acid] cannot be ordered by IC50: under 5 µM for the first, under 5 µM for the second.

`C[C@H]1CC[C@H](C(=O)N(c2cc(C3=CCCCC3)sc2C(=O)O)[C@H]2CC[C@H](C#N)CC2)CC1` [Compound 50, 3-[(trans-4-cyanocyclohexyl)-(trans-4-methyl-cyclohexanecarbonyl)-amino]-5-cyclohex-1-enyl-thiophene-2-carboxylic acid] and `C[C@H]1CC[C@H](C(=O)N(c2cc(C3=CCCCC3)sc2C(=O)O)[C@H]2CC[C@@H](F)CC2)CC1` [Compound 57, 5-cyclohex-1-enyl-3-[(cis-4-fluoro-cyclohexyl)-(trans-4-methyl-cyclohexanecarbonyl)-amino]-thiophene-2-carboxylic acid] cannot be ordered by IC50: under 5 µM for the first, under 5 µM for the second.

`CC1CCC(C(=O)N(c2cc(C3=CC/C(=N/OCc4ccccc4)CC3)sc2C(=O)O)C2CCC(O)CC2)CC1` (stereo not drawn) [Compound 26, 5-{4-benzyloxyimino-cyclohex-1-enyl}-3-[(4-trans-hydroxy-cyclohexyl)-(4-trans-methyl-cyclohexanecarbonyl)-amino]-thiophene-2-carboxylic acid] and `COCO[C@H]1CC[C@H](N(c2cc(C3=CCCCC3)sc2C(=O)O)C(=O)[C@H]2CC[C@H](C)CC2)CC1` [Compound 24, 5-Cyclohex-1-enyl-3-[(trans-4-methoxymethoxy-cyclohexyl)-(trans-4-methyl-cyclohexanecarbonyl)-amino]-thiophene-2-carboxylic acid] cannot be ordered by IC50: under 5 µM for the first, under 5 µM for the second.

`COCOC1CCC(N(C(=O)C2CCC(C)CC2)c2cc(C3=CCC(C)(C)CC3)sc2C(=O)O)CC1` (stereo not drawn) [Compound 114, 5-(4,4-dimethyl-cyclohex-1-enyl)-3-[(4-trans-methoxymethoxy-cyclohexyl)-(4-trans-methyl-cyclohexanecarbonyl)-amino]-thiophene-2-carboxylic acid] and `COC1CCC(N(C(=O)C2CCC(C)CC2)c2cc(C3=CCCC(C)(C)C3)sc2C(=O)O)CC1` (stereo not drawn) [Compound 138, 5-(5,5-dimethyl-cyclohex-1-enyl)-3-[(4-trans-methoxy-cyclohexyl)-(4-trans-methyl-cyclohexanecarbonyl)-amino]-thiophene-2-carboxylic acid] cannot be ordered by IC50: under 5 µM for the first, under 5 µM for the second.

`CC1CCC(C(=O)N(c2cc(C3=CCCCC3)sc2C(=O)O)C2CCC3(CC2)CNC(=O)C3)CC1` (stereo not drawn) [Compound 80, 5-cyclohex-1-enyl-3-[(trans-4-methyl-cyclohexanecarbonyl)-cis-(3-oxo-2-aza-spiro[4.5]dec-8-yl)-amino]-thiophene-2-carboxylic acid] and `CC1CCCC(N(c2cc(C3=CCCCC3)sc2C(=O)O)C(=O)[C@H]2CC[C@H](C)CC2)C1` (relative stereo) [Compound 39, 5-cyclohex-1-enyl-3-[(trans-4-methyl-cyclohexanecarbonyl)-(3-methyl-cyclohexyl)-amino]-thiophene-2-carboxylic acid] cannot be ordered by IC50: under 5 µM for the first, under 5 µM for the second.

`CC1(C)CC=C(c2cc(N(C(=O)[C@H]3CC[C@H](C)CC3)[C@H]3CC[C@@H](n4cncn4)CC3)c(C(=O)O)s2)CC1` [Compound 94, 5-(4,4-dimethyl-cyclohex-1-enyl)-3-[(trans-4-methyl-cyclohexanecarbonyl)-(cis-4-[1,2,4]triazol-1-yl-cyclohexyl)-amino]-thiophene-2-carboxylic acid; hydrochloride] and `CC(C)C(=O)N[C@H]1CC[C@H](N(c2cc(C3=CCCCC3)sc2C(=O)O)C(=O)[C@H]2CC[C@H](C)CC2)CC1` [Compound 134, 5-cyclohex-1-enyl-3-[(trans-4-isobutyrylamino-cyclohexyl)-(trans-4-methyl-cyclohexanecarbonyl)-amino]-thiophene-2-carboxylic acid] cannot be ordered by IC50: under 5 µM for the first, under 5 µM for the second.

Same assay, conditions: Huh-7, 5.2 or ET replicon cells, luciferase counts after 4 days incubation; read-out: IC50

`CC1CCC(C(=O)N(c2cc(C3=CCCCC3)sc2C(=O)O)C2CCC3(CC2)CNC(=O)C3)CC1` (stereo not drawn) [Compound 81, 5-cyclohex-1-enyl-3-[(trans-4-methyl-cyclohexanecarbonyl)-trans-(3-oxo-2-aza-spiro[4.5]dec-8-yl)-amino]-thiophene-2-carboxylic acid] and `CC1CCC(C(=O)N(c2cc(C3=CCCCC3)sc2C(=O)O)C2CCC3(CC2)CC(=O)N(C)C3)CC1` (stereo not drawn) [Compound 128, 5-cyclohex-1-enyl-3-[(trans-4-methyl-cyclohexanecarbonyl)-trans(2-methyl-3-oxo-2-aza-spiro[4.5]dec-8-yl)-amino]-thiophene-2-carboxylic acid] cannot be ordered by IC50: under 5 µM for the first, under 5 µM for the second.

`CC1CCC(C(=O)N(c2cc(C3=CCCCC3)sc2C(=O)O)C2CCC(n3ccnn3)CC2)CC1` (stereo not drawn) [Compound 105, 5-cyclohex-1-enyl-3-[(trans-4-methyl-cyclohexanecarbonyl)-(trans-4-[1,2,3]triazol-1-cyclohexyl)-amino]-thiophene-2-carboxylic acid] and `CC1CCC(C(=O)N(c2cc(C3=CCCCC3)sc2C(=O)O)C2CCC(C(C)(C)C)CC2)CC1` (stereo not drawn) [Compound 45, 3-[(4-cis-tert-butyl-cyclohexyl)-(4-trans-methyl-cyclohexanecarbonyl)-amino]-5-cyclohex-1-enyl-thiophene-2-carboxylic acid] cannot be ordered by IC50: under 5 µM for the first, under 5 µM for the second.
